{"source": "patent US20130288292A1", "about": "“SURFACE-TENSION BASED FLOW GUIDANCE IN A MICROSTRUCTURE ENVIRONMENT” (priority 2011, published 2013)", "system": "PC3-M cells", "experiment": "Immunocytochemistry staining of Ki67 in PC3-M cells embedded in 3D Matrigel", "assay_type": "cell-based", "settings": "20 μM Cycloheximide in growth media; PC3-M cells in 3D Matrigel (90%), Iuvo Slide 3D ICC platform", "description": "FIGS. 11 A-C show immunocytochemistry staining of PC3-M Cells embedded in 3D matrix. PC3-M cells were embedded in 3D Matrigel™ (90%) on the Iuvo™ Slide—3D ICC platform (Figure A.). Once the matrix gelled, growth media (with and without 20 μM Cycloheximide) was added to the side compartments of the channel. Following incubation, the cells in the matrix were fixed by flowing reagents through the side channels and allowing sufficient time for diffusion into the gel. A standard immunocytochemistry protocol (4% formaldehyde fixative, 0.5% TX-100 permeabilization buffer, 10% goat serum blocking buffer, primary antibody for Ki67 from LabVision, and AlexaFluor®594 secondary antibody) was utilized. […] FIG. 11 C. is a graph showing the quantitative analysis of the immunocytochemistry staining of PC3-M Cells embedded in a 3D Matrix.\nAnother embodiment of the invention provides a device that enables the use of assay methods requiring multiple liquid replacement, or wash steps that require the diffusion of large biomolecules, in matrices that are very dense, such as Matrigel™. For example, it is becoming increasingly clear that the lack of a native three dimensional tissue microenvironment seriously limits the utility and accuracy of cellular assays, many of which rely on immunocytochemistry as an endpoint. […]"}
{"smiles": "C[C@@H]1C[C@@H]([C@H](O)CC2CC(=O)NC(=O)C2)C(=O)[C@@H](C)C1", "note": "[Cycloheximide]", "values": [{"measurement": "proliferation marker Ki67 (immunocytochemistry staining)", "value": "loss of proliferation marker"}]}
